Assay results published in patent US8921267B2, “Safening 6-(trisubstituted phenyl)-4-amino-2-pyridinecarboxylate herbicide injury on cereal crops” (Dow AgroSciences LLC, priority 2008, dated 2014).

Assays:
Assay type in all cases: in vivo
[1] = system: barley (Hordeum vulgare L; HORVS); test: Postemergence herbicidal safening, greenhouse, visual injury: barley; details: for HORVS Ob: applied alone
Description: (§1) Evaluation of Postemergence Herbicidal Safening in Cereal Crops
(§2) Seeds of the desired test plant species were planted in Sun Gro MetroMix® 306 planting mixture, which typically has a pH of 6.0 to 6.8 and an organic matter content of about 30 percent, in plastic pots with a surface area of 103.2 square centimeters (cm^2). When required to ensure good germination and healthy plants, a fungicide treatment and/or other chemical or physical treatment was applied. The plants were grown for 7-36 days (d) in a greenhouse with an approximate 14-hour (h) photoperiod which was maintained at about 18° C. during the day and 17° C. during the night. Nutrients and water were added on a regular basis and supplemental lighting was provided with overhead metal halide 1000-Watt lamps as necessary. The plants were employed for testing when they reached the second or third true leaf stage.
(§3) Weighed amounts of esters (methyl) or salts (TEA [triethylammonium], K [potassium]) of 4-amino-3-chloro-6-(4-chloro-2-fluoro-3-methoxyphenyl)pyridine-2-carboxylic acid (Compound 1) were dissolved in a volume of 97:3 volume/volume (v/v) acetone/dimethylsulfoxide (DMSO) to obtain stock solutions. […] The concentrated stock solutions were diluted with an aqueous mixture of 1.5% v/v of Agri-dex crop oil concentrate to provide the appropriate application rates. Compound requirements are based upon a 12 mL application volume at a rate of 187 liters per hectare (L/ha). Stocks solutions of the safeners were prepared following the same procedure. Spray solutions of the safeners and experimental compound mixtures were prepared by adding the stock solutions to the appropriate amount of dilution solution to form a 12 mL spray solution with active ingredients in two-way combinations. Formulated compounds were applied to the plant material with an overhead Mandel track sprayer equipped with 8002E nozzles calibrated to deliver 187 L/ha over an application area of 0.503 square meters (m^2) at a spray height of 18 inches (43 centimeters (cm)) above average plant canopy. Control plants were sprayed in the same manner with the solvent blank.
(§4) The treated plants and control plants were placed in a greenhouse as described above and watered by sub-irrigation to prevent wash-off of the test compounds. After 20-22 d, the condition of the test plants as compared with that of the control plants was determined visually and scored on a scale of 0 to 100 percent where 0 corresponds to no injury and 100 corresponds to complete kill.
(§5) Colby's equation was used to determine the herbicidal effects expected from the mixtures (Colby, S. R. Calculation of the synergistic and antagonistic response of herbicide combinations. Weeds 1967, 15, 20-22.).
(§6) The following equation was used to calculate the expected activity of mixtures containing two active ingredients, A and B: Expected=A+B−(A×B/100)
(§7) A=observed efficacy of active ingredient A at the same concentration as used in the mixture.
(§8) B=observed efficacy of active ingredient B at the same concentration as used in the mixture.

[2] = system: cleavers (Galium aparine L; GALAP); test: Postemergence herbicidal activity, greenhouse, visual injury: cleavers; design: key: visual injury, 0–100%: 0 = no injury, 100 = complete kill; details: applied alone
Description: as §1, §2, §3, §4, §5, §6, §7, §8

[3] = system: wild pansy (Viola tricolor L; VIOTR); test: Postemergence herbicidal activity, greenhouse, visual injury: wild pansy; design: key: visual injury, 0–100%: 0 = no injury, 100 = complete kill; details: for VIOTR Ob: applied alone
Description: as §1, §2, §3, §4, §5, §6, §7, §8

[4] = system: chickweed (Stellaria media L; STEME); test: Postemergence herbicidal activity, greenhouse, visual injury: chickweed; design: key: visual injury, 0–100%: 0 = no injury, 100 = complete kill; details: applied alone
Description: as §1, §2, §3, §4, §5, §6, §7, §8

[5] = system: corn poppy (Papaver rhoeas L; PAPRH); test: Postemergence herbicidal activity, greenhouse, visual injury: corn poppy; details: applied alone
Description: as §1, §2, §3, §4, §5, §6, §7, §8

[6] = system: bird's-eye speedwell (Veronica persica L; VERPE); test: Postemergence herbicidal activity, greenhouse, visual injury: bird's-eye speedwell; design: key: visual injury, 0–100%: 0 = no injury, 100 = complete kill; details: applied alone
Description: as §1, §2, §3, §4, §5, §6, §7, §8

[7] = system: wild buckwheat (Polygonum convolvulus L; POLCO); test: Postemergence herbicidal activity, greenhouse, visual injury: wild buckwheat; details: applied alone
Description: as §1, §2, §3, §4, §5, §6, §7, §8

[8] = system: Russian thistle (Salsola iberica L; SASKR); test: Postemergence herbicidal activity, greenhouse, visual injury: Russian thistle; design: key: visual injury, 0–100%: 0 = no injury, 100 = complete kill; details: applied alone
Description: as §1, §2, §3, §4, §5, §6, §7, §8

[9] = system: purple deadnettle (Lamium purpureum L; LAMPU); test: Postemergence herbicidal activity, greenhouse, visual injury: purple deadnettle; design: key: visual injury, 0–100%: 0 = no injury, 100 = complete kill; details: applied alone
Description: as §1, §2, §3, §4, §5, §6, §7, §8

[10] = system: scented mayweed (Matricaria chamomila L; MATCH); test: Postemergence herbicidal activity, greenhouse, visual injury: scented mayweed; design: key: % visual injury: 0 = no injury, 100 = complete kill; details: for MATCH Ob: applied alone
Description: as §1, §2, §3, §4, §5, §6, §7, §8

[11] = system: kochia (Kochia scoparia L; KCHSC); test: Postemergence herbicidal activity, greenhouse, visual injury: kochia; design: key: % visual injury: 0 = no injury, 100 = complete kill; details: applied alone
Description: as §1, §2, §3, §4, §5, §6, §7, §8

[12] = system: wheat (Triticum aestivum L; TRZAS); test: Postemergence herbicidal safening, greenhouse, visual injury: wheat; details: for TRZAS Ob: applied alone
Description: as §1, §2, §3, §4, §5, §6, §7, §8

SMILES: CC1(C)OC(c2ccco2)CN1C(=O)C(Cl)Cl (stereo not shown) [Furilazole (MON 13900)]
- HORVS Ob ([1]; 17.5 g/ha): 0%
- HORVS Ob ([1]; 35 g/ha): 0%
- HORVS Ob ([1]; 70 g/ha): 0%
- HORVS Ob ([1]; 140 g/ha): 0%
- GALAP Ob ([2]; 17.5 g/ha): 0
- GALAP Ob ([2]; 35 g/ha): 0
- GALAP Ob ([2]; 70 g/ha): 0
- GALAP Ob ([2]; 140 g/ha): 0
- VIOTR Ob ([3]; 17.5 g/ha): 0
- VIOTR Ob ([3]; 35 g/ha): 0
- VIOTR Ob ([3]; 70 g/ha): 0
- VIOTR Ob ([3]; 140 g/ha): 0
- STEME Ob ([4]; 17.5 g/ha): 0
- STEME Ob ([4]; 35 g/ha): 0
- STEME Ob ([4]; 70 g/ha): 0
- STEME Ob ([4]; 140 g/ha): 0
- PAPRH Ob ([5]; 17.5 g/ha): 0
- PAPRH Ob ([5]; 35 g/ha): 0
- PAPRH Ob ([5]; 70 g/ha): 0
- PAPRH Ob ([5]; 140 g/ha): 0
- VERPE Ob ([6]; 17.5 g/ha): 0
- VERPE Ob ([6]; 35 g/ha): 0
- VERPE Ob ([6]; 70 g/ha): 0
- VERPE Ob ([6]; 140 g/ha): 0
- POLCO Ob ([7]; 17.5 g/ha): 0
- POLCO Ob ([7]; 35 g/ha): 0
- POLCO Ob ([7]; 70 g/ha): 0
- POLCO Ob ([7]; 140 g/ha): 0
- SASKR Ob ([8]; 17.5 g/ha): 0
- SASKR Ob ([8]; 35 g/ha): 0
- SASKR Ob ([8]; 70 g/ha): 0
- SASKR Ob ([8]; 140 g/ha): 0
- LAMPU Ob ([9]; 17.5 g/ha): 0
- LAMPU Ob ([9]; 35 g/ha): 0
- LAMPU Ob ([9]; 70 g/ha): 0
- LAMPU Ob ([9]; 140 g/ha): 0
- MATCH Ob ([10]; 17.5 g/ha): 0
- MATCH Ob ([10]; 35 g/ha): 0
- MATCH Ob ([10]; 70 g/ha): 0
- MATCH Ob ([10]; 140 g/ha): 0
- KCHSC Ob ([11]; 17.5 g/ha): 0
- KCHSC Ob ([11]; 35 g/ha): 0
- KCHSC Ob ([11]; 70 g/ha): 0
- KCHSC Ob ([11]; 140 g/ha): 0
- TRZAS Ob ([12]; 17.5 g/ha): 0%
- TRZAS Ob ([12]; 35 g/ha): 0%
- TRZAS Ob ([12]; 70 g/ha): 0%
- TRZAS Ob ([12]; 140 g/ha): 0%

SMILES: O=C(O)CNCP(=O)(O)O [Glyphosate]
- HORVS Ob (Observed values) ([1]; Glyphosate 52.5 g/ha alone): 13
- VIOTR Ob (Observed values) ([3]; Glyphosate 52.5 g/ha alone): 52
- MATCH Ob (Observed values) ([10]; Glyphosate 52.5 g/ha alone): 28
- TRZAS Ob (Observed values) ([12]; Glyphosate 52.5 g/ha alone): 48

SMILES: N#C/C(=N\OCC1OCCO1)c1ccccc1 [Oxabetrinil]
- HORVS Ob ([1]; 17.5 g/ha): 0%
- HORVS Ob ([1]; 35 g/ha): 0%
- HORVS Ob ([1]; 70 g/ha): 0%
- HORVS Ob ([1]; 140 g/ha): 0%
- GALAP Ob ([2]; 17.5 g/ha): 0
- GALAP Ob ([2]; 35 g/ha): 0
- GALAP Ob ([2]; 70 g/ha): 0
- GALAP Ob ([2]; 140 g/ha): 0
- VIOTR Ob ([3]; 17.5 g/ha): 0
- VIOTR Ob ([3]; 35 g/ha): 0
- VIOTR Ob ([3]; 70 g/ha): 0
- VIOTR Ob ([3]; 140 g/ha): 0
- STEME Ob ([4]; 17.5 g/ha): 0
- STEME Ob ([4]; 35 g/ha): 0
- STEME Ob ([4]; 70 g/ha): 0
- STEME Ob ([4]; 140 g/ha): 0
- PAPRH Ob ([5]; 17.5 g/ha): 0
- PAPRH Ob ([5]; 35 g/ha): 0
- PAPRH Ob ([5]; 70 g/ha): 0
- PAPRH Ob ([5]; 140 g/ha): 0
- VERPE Ob ([6]; 17.5 g/ha): 0
- VERPE Ob ([6]; 35 g/ha): 0
- VERPE Ob ([6]; 70 g/ha): 0
- VERPE Ob ([6]; 140 g/ha): 0
- POLCO Ob ([7]; 17.5 g/ha): 0
- POLCO Ob ([7]; 35 g/ha): 0
- POLCO Ob ([7]; 70 g/ha): 0
- POLCO Ob ([7]; 140 g/ha): 0
- SASKR Ob ([8]; 17.5 g/ha): 0
- SASKR Ob ([8]; 35 g/ha): 0
- SASKR Ob ([8]; 70 g/ha): 0
- SASKR Ob ([8]; 140 g/ha): 0
- LAMPU Ob ([9]; 17.5 g/ha): 0
- LAMPU Ob ([9]; 35 g/ha): 0
- LAMPU Ob ([9]; 70 g/ha): 0
- LAMPU Ob ([9]; 140 g/ha): 0
- MATCH Ob ([10]; 17.5 g/ha): 0
- MATCH Ob ([10]; 35 g/ha): 0
- MATCH Ob ([10]; 70 g/ha): 0
- MATCH Ob ([10]; 140 g/ha): 0
- KCHSC Ob ([11]; 17.5 g/ha): 0
- KCHSC Ob ([11]; 35 g/ha): 0
- KCHSC Ob ([11]; 70 g/ha): 0
- KCHSC Ob ([11]; 140 g/ha): 0
- TRZAS Ob ([12]; 17.5 g/ha): 0%
- TRZAS Ob ([12]; 35 g/ha): 0%
- TRZAS Ob ([12]; 70 g/ha): 0%
- TRZAS Ob ([12]; 140 g/ha): 0%
